Data reported in PubChem BioAssay AID2842 (Southern Research Institute, 2010).
≈ marks a conversion by molar mass, not a printed value.

Each compound was assayed on M. tuberculosis H37Rv growth inhibition (assay: Mycobacterium tuberculosis H37Rv growth inhibition, putative kinase inhibitor library, confirmatory dose response (AID 2842);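 further: bacteria incubated one week before Alamar blue readout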).

`O=C(Nc1nnc(-c2cccs2)o1)C1=COCCO1` and `CN(C)c1ccc(C(=O)Nc2nnc(C3=COCCO3)o2)cc1` are within 1.5-fold of each other in IC90: 6.18 µg/mL (≈ 22.1 µM) for the first, 9.01 µg/mL (≈ 28.5 µM) for the second.

`Cc1ccc2[nH]c(=O)c(C3=NN(C(=O)c4ccco4)C(c4ccco4)C3)c(-c3ccccc3)c2c1` (stereo unspecified) and `Cc1cccc2sc(NNC(=O)c3cc(-c4cccs4)nc4ccccc34)nc12` are within 1.5-fold of each other in IC90: 15.4 µg/mL (≈ 33.3 µM) for the first, 22.8 µg/mL (≈ 54.8 µM) for the second.

Compared with `COc1ccc(-c2nnc(NC(=O)c3ccccc3Br)o2)cc1`, `O=C(Nc1nnc(-c2cccnc2)o1)c1ccccc1Cl` is 1.5-fold lower in IC90: 82.2 µg/mL (≈ 220 µM) for the first, 53.5 µg/mL (≈ 178 µM) for the second.

First: CC(C)(C)c1ccc(C(=O)N2CC(=O)Nc3ccc(Cl)cc3C2c2ccc(F)cc2)cc1 (stereo unspecified)
Second: O=S(=O)(Nc1cc(Cl)c(O)c2ccccc12)c1ccc(F)cc1
The IC90 of the first is 1.6-fold higher: 9.95 µg/mL (≈ 22.1 µM) for the first, 6.28 µg/mL (≈ 17.9 µM) for the second.

Compared with `Cc1ccc(-c2nnc(NC(=O)c3ccc(Br)s3)o2)c(C)c1`, `Cc1ccc(-c2nnc(NC(=O)c3ccccc3Cl)o2)c(C)c1` is lower in IC90: 2.17 µg/mL (≈ 5.74 µM) for the first, < 0.2 µg/mL for the second.

Going from `COc1ccc(C)c2sc(N(CCCn3ccnc3)C(=O)c3ccc(Cl)s3)nc12` to `COc1ccc(CNc2nccn(-c3cc(C)c(Cl)cc3OC)c2=O)cc1`, the IC90 rises from 2.69 µg/mL (≈ 6.02 µM) to 18.1 µg/mL (≈ 46.8 µM) (6.7-fold).

Compared with `Cc1ccc(C)c(-c2nnc(NC(=O)C3CC3)o2)c1`, `Cc1ccc(C)c(-c2nnc(NC(=O)c3ccccc3F)o2)c1` is lower in IC90: 1.46 µg/mL (≈ 5.67 µM) for the first, < 0.2 µg/mL for the second.

Compared with `C=CCOC(=O)COc1ccc2cc(-c3ccc(OC)cc3)c(=O)oc2c1`, `COc1cccc(-c2nnc(NC(=O)c3ccc4c(c3)CCCC4)o2)c1` is 1.5-fold higher in IC90: 3.58 µg/mL (≈ 9.77 µM) for the first, 5.48 µg/mL (≈ 15.7 µM) for the second.

First: CCOC(=O)N1CCc2c(sc(NC(=O)c3nc4ccccc4s3)c2C(N)=O)C1
Second: Cc1ccc(C(=O)Nc2sc3c(c2C(N)=O)CCN(C)C3)cc1C
The IC90 of the first is 5.4-fold lower: 3.48 µg/mL (≈ 8.08 µM) for the first, 18.8 µg/mL (≈ 54.7 µM) for the second.

First: O=C(OCn1nnc2ccccc2c1=O)c1ccccc1
Second: O=C(Cc1ccccc1)Nc1nnc(-c2ccc(F)cc2)o1
The IC90 of the first is 5.9-fold lower: 1.41 µg/mL (≈ 5.01 µM) for the first, 8.35 µg/mL (≈ 28.1 µM) for the second.

Compared with `O=C(Nc1nnc(-c2cc(Cl)ccc2Cl)o1)c1nc2ccccc2s1`, `O=C(Nc1nnc(-c2cc(Cl)ccc2Cl)o1)c1ccc(Cl)s1` is 5.6-fold lower in IC90: 10.5 µg/mL (≈ 26.7 µM) for the first, 1.86 µg/mL (≈ 4.96 µM) for the second.

Going from `O=C(Nc1nnc(C2=COCCO2)o1)c1cc(Cl)sc1Cl` to `O=C(Nc1nnc(-c2ccc3c(c2)OCCO3)o1)c1ccccc1Cl`, the IC90 falls from 34.1 µg/mL (≈ 98 µM) to 4.5 µg/mL (≈ 12.6 µM) (7.6-fold).

Going from `O=C(Nc1nnc(-c2ccco2)o1)c1cccc(C(F)(F)F)c1` to `Cc1cccc(C(=O)Nc2nnc(-c3cccnc3)o2)c1`, the IC90 rises from < 0.2 µg/mL to 8.87 µg/mL (≈ 31.6 µM).

Compared with `Cc1ccc(NC(=O)c2oc3ccccc3c2NC(=O)CCl)cc1C`, `Cc1ccc(C)c(-c2nnc(NC(=O)c3ccccc3S(C)(=O)=O)o2)c1` is 1.9-fold higher in IC90: 10.2 µg/mL (≈ 28.5 µM) for the first, 19.3 µg/mL (≈ 52 µM) for the second.

`Cc1cccc(C(=O)Nc2nnc(-c3cc(Cl)ccc3Cl)o2)c1` and `COc1cc(C(=O)Nc2nnc(-c3cc(Cl)ccc3Cl)o2)cc(OC)c1OC` are within 1.5-fold of each other in IC90: 32 µg/mL (≈ 91.9 µM) for the first, 28.3 µg/mL (≈ 66.7 µM) for the second.

First: CCCCn1c(N2CCN(Cc3ccc(Cl)c(Cl)c3)CC2)nc2c1c(=O)[nH]c(=O)n2C
Second: CCOC(=O)c1cc(NC(=O)Nc2ccc(Cl)c(Cl)c2)c(C)nc1C
The IC90 of the first is 1.7-fold lower: 7.15 µg/mL (≈ 15.4 µM) for the first, 12.4 µg/mL (≈ 32.5 µM) for the second.

`Cc1ccc(N=C2NC(=O)C(Cc3ccccc3Cl)S2)cc1` (stereo unspecified) and `Cc1ccc(C(=O)Nc2nnc(-c3ccc(C)cc3C)o2)cc1` are within 1.5-fold of each other in IC90: 25.4 µg/mL (≈ 76.9 µM) for the first, 33.5 µg/mL (≈ 109 µM) for the second.

Compared with `Fc1cccc2sc(Nc3nnc(-c4ccco4)o3)nc12`, `COc1ccccc1-c1nnc(Nc2nc3c(F)cccc3s2)o1` is 1.5-fold higher in IC90: 2.08 µg/mL (≈ 6.88 µM) for the first, 3.16 µg/mL (≈ 9.23 µM) for the second.

Going from `CCOC(CNc1ncnc2c1cnn2-c1ccc(C)cc1)OCC` to `Cc1cc(C)c(-c2csc(NC(=O)c3ccc4c(c3)OCCO4)n2)c(C)c1`, the IC90 falls from 25.6 µg/mL (≈ 74.9 µM) to 7.63 µg/mL (≈ 20.1 µM) (3.4-fold).

Compared with `Cc1ccc(C2C(C#N)=C(SCC(=O)Nc3cccc(Cl)c3)NC3=C2C(=O)CCC3)o1` (stereo unspecified), `O=C(Nc1nnc(-c2ccc3c(c2)CCCC3)o1)c1c(F)cccc1F` is 2.7-fold lower in IC90: 12.1 µg/mL (≈ 26.6 µM) for the first, 4.5 µg/mL (≈ 12.7 µM) for the second.

In the case of `CC(C)C(=O)Nc1nnc(-c2ccc3c(c2)OCCO3)o1`, the IC90 is reported as 52.3 µg/mL (≈ 181 µM).
